Like-named read-outs stand apart in the source and are kept apart here.
Legend:
[1] = set-up: method as in PMID 17297027; conditions: cited from earlier work
[2] = set-up: method as in PMID 20299957; conditions: cited from earlier work
[3] = set-up: method as in PMID 17297027; conditions: cited from earlier work; remark: listed apart in the source
[4] = 12 hour-PK of anti-retrovirals before and at day 20 of atovaquone/proguanil prophylaxis (HPLC-UV, plasma); assay type: in vivo, human; conditions: for Δ AUC0-12h (during prophylaxis AUC minus pre-prophylaxis AUC): plasma, one HIV patient, day 20 of atovaquone/proguanil 250/100 mg daily vs before prophylaxis
Procedure: In September 2009, the patient planned to spend a two-week holiday in Kenya. […] Standard malaria prophylaxis with atovaquone/proguanil fixed-dose combination (250/100 mg) was prescribed: one tablet daily starting two days before the journey and ending the treatment seven days after return to Italy. A 12 hour-PK of anti-retrovirals was performed before starting prophylaxis with atovaquone/proguanil (Figure 1). The samples were collected in fasting status following this order: the first sample 12 hours after the last dose of anti-retrovirals (pre-dose); the second sample one hour after breakfast and anti-retrovirals consumption; the following samples at 2, 4, 6 and 12 hours post anti-retrovirals' intake. The second PK for the determination of anti-retrovirals' plasma concentrations during atovaquone/proguanil prophylaxis was collected at day 20 on prophylaxis with the same timing plan (Figure 1). In order to avoid any food interference with the PK results, the same diet was administered in both the PK sampling days.

[5] = system: CYP3A; set-up: method as in PMID 19725591; conditions: cited from earlier work
[6] = system: CYP2C9, 2C19 and P-glycoprotein; set-up: method as in PMID 19725591; conditions: cited from earlier work
[7] = system: P450 system; set-up: method as in PMID 9530286, PMID 9835508; conditions: cited from earlier work
[8] = system: P-glycoprotein and MRP1; set-up: method as in PMID 9530286, PMID 9835508; conditions: cited from earlier work

O=C1C(O)=C([C@H]2CC[C@H](c3ccc(Cl)cc3)CC2)C(=O)c2ccccc21 [atovaquone]
protein-bound [1]: > 99% | geometric mean ratio (95% confidence interval) of AUC of atovaquone ([2]; patients on atazanavir/ritonavir compared with healthy volunteers): 0.54 (0.35-0.83) | geometric mean ratio (95% confidence interval) of AUC of atovaquone ([2]; patients on efavirenz compared with healthy volunteers): 0.25 (0.16-0.38) | geometric mean ratio (95% confidence interval) of AUC of atovaquone ([2]; patients on lopinavir/ritonavir compared with healthy volunteers): 0.26 (0.17-0.41) | elimination half-life ([3]; adults): 48 to 72 h | drug excreted unchanged in the faeces [3]: 94%

[H]/N=C(\N/C(=N/[H])Nc1ccc(Cl)cc1)NC(C)C [proguanil]
protein-bound [1]: 75% | plasma concentrations lower ([2]; patients on efavirenz, lopinavir/ritonavir or atazanavir/ritonavir compared with healthy volunteers): 38-43% | absolute bioavailability [3]: ≤ 60% | elimination half-life [3]: 12 to 21 h | time to peak plasma concentrations [3]: 2 to 4 h

Cc1nnc(C(=O)NC(C)(C)c2nc(C(=O)NCc3ccc(F)cc3)c(O)c(=O)n2C)o1 [raltegravir]
Tmax and Cmax in post-prophylaxis versus pre-prophylaxis ([4]; PK profiles, day 20 of atovaquone/proguanil prophylaxis): earlier | Δ AUC0-12h (during prophylaxis AUC minus pre-prophylaxis AUC) [4]: -23%

Cc1cc(C#N)cc(C)c1Oc1nc(Nc2ccc(C#N)cc2)nc(N)c1Br [etravirine]
induction of CYP3A [5]: inducer | inhibition of CYP2C9, 2C19 and P-glycoprotein [6]: mild inhibitor | Δ AUC0-12h (during prophylaxis AUC minus pre-prophylaxis AUC) [4]: +55%

CC(C)(C)NC(=O)[C@@H]1C[C@@H]2CCCC[C@@H]2CN1C[C@@H](O)[C@H](Cc1ccccc1)NC(=O)[C@H](CC(N)=O)NC(=O)c1ccc2ccccc2n1 [saquinavir]
induction or inhibition of P450 system [7]: neither an inducer nor an inhibitor | interaction with P-glycoprotein and MRP1 [8]: substrate and inhibitor | Δ AUC0-12h (during prophylaxis AUC minus pre-prophylaxis AUC) [4]: +274%
